# Results reported in patent publication US20200093856A1, “Hydrogen-containing composition for ameliorating depressive symptom” (MiZ Company Limited, priority 2018, published 2020).
# Tested on: patient diagnosed as having depression
# Assay: Case of improvement of depressive symptoms by aspiration (or inhalation) of hydrogen
# Format: in vivo, human
# Settings: for symptoms (depressive symptoms, anthropophobia, insomnia) under prescribed medication: patient, Abilify intramuscular injections, Lexotan Tablet 2 and Brotizolam Tablet taken together, before hydrogen
# Text: A patient diagnosed as having depression, who had suffered from anthropophobia and insomnia along with depressive symptoms, received intramuscular injections of Abilify™ (Otsuka Pharmaceutical Co., Ltd. (Japan); with indication of depressive disorder) prescribed by a doctor at the department of psychiatry, and took Lexotan™ Tablet 2 (Chugai Pharmaceutical Co., Ltd. (Japan); with an indications of anxiety and tension associated with depressive disorder) and Brotizolam Tablet (Choseido Pharmaceutical Co., Ltd.; with indication of insomnia); however, the symptoms were not improved. Thus, hydrogen gas (70 to 140 ml/min) was aspirated for 1 hour once or twice a day using a hydrogen aspirator (MHG-2000α™ (MiZ Company Limited)) over about half a year while the medication was continued. As a result, the number of days on which it was possible to naturally fall asleep increased (2 or 3 days a week), and the liveliness of voice was enhanced. About half a year after the start of aspiration (or inhalation) of hydrogen gas, administration of the Brotizolam Tablet was discontinued, and the amount of hydrogen gas aspirated was increased (280 ml/min for 6 hours per day). The aspiration of hydrogen gas was continued over about 3 months. As a result, the depressive symptoms were improved, and therefore the use of Abilify and Lexotan Tablet 2 was discontinued on the basis of the doctor's judgement. […] After the use of Abilify and Lexotan Tablet 2, aspiration of hydrogen gas (280 ml/min for 6 hours per day) was continued.
# [1] = hydrogen gas 280 ml/min for 6 hours per day continued after Abilify and Lexotan Tablet 2 were discontinued
structure (smiles),measurement,setting,value
"O=C1CCc2ccc(OCCCCN3CCN(c4cccc(Cl)c4Cl)CC3)cc2N1 [Abilify, aripiprazole, reference compound]","symptoms (depressive symptoms, anthropophobia, insomnia) under prescribed medication",,not improved
"Cc1nnc2n1-c1sc(Br)cc1C(c1ccccc1Cl)=NC2 [Brotizolam Tablet, Brotizolam, reference compound]","symptoms (depressive symptoms, anthropophobia, insomnia) under prescribed medication",,not improved
"O=C1CN=C(c2ccccn2)c2cc(Br)ccc2N1 [Lexotan Tablet 2, bromazepam, reference compound]","symptoms (depressive symptoms, anthropophobia, insomnia) under prescribed medication",,not improved
"[HH] [hydrogen gas, hydrogen]",liveliness of voice,"hydrogen gas 70 to 140 ml/min aspirated 1 hour once or twice a day over about half a year, medication continued",enhanced
same,care personnel's evaluation of the patient,[1],being much more cheerful in disposition than before
same,depressive symptoms,[1],"improved to the extent that the patient went outside more frequently than before, and enjoyed a life similar to a healthy person"
same,depressive symptoms,"hydrogen gas 280 ml/min for 6 hours per day over about 3 months, Brotizolam discontinued, Abilify and Lexotan continued",improved
same,improving effect on depressive symptoms versus amount of hydrogen gas aspirated per day,"same patient, 70 to 140 ml/min 1 hour once or twice a day versus 280 ml/min 6 hours per day",enhanced as the amount of hydrogen gas aspirated by the patient per day increases
